#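 Compound exposure: 48 hours, 5 concentrations, 96-well plates. GI50 = concentration required for 50% inhibition of growth.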 Activity calls are given as the source filed them. Cut-off read from the data, not from the text of the source: active = GI50 up to about 1.1 µM and inactive = higher.
# Tests used:
# Assay in all cases: NCI tumour cell line growth inhibition, 48 h
# MDA-MB-435 = tested on: MDA-MB-435
# SK-MEL-2 = tested on: SK-MEL-2
# HCT-15 = tested on: HCT-15
# LOX IMVI = tested on: LOX IMVI
# OVCAR-5 = tested on: OVCAR-5
# RPMI-8226 = tested on: RPMI-8226
# MDA-N = tested on: MDA-N
# HOP-62 = tested on: HOP-62
# DU-145 = tested on: DU-145
# ACHN = tested on: ACHN
# CAKI-1 = tested on: CAKI-1
# SK-MEL-28 = tested on: SK-MEL-28
# A498 = tested on: A498
# NCI-H23 = tested on: NCI-H23
# T47D = tested on: T47D
# Malme-3M = tested on: Malme-3M
# PC-3 = tested on: PC-3
# NCI-H460 = tested on: NCI-H460
# HCC 2998 = tested on: HCC 2998
# NCI-H522 = tested on: NCI-H522
# NCI-H226 = tested on: NCI-H226
# NCI/ADR-RES = tested on: NCI/ADR-RES
# M14 = tested on: M14
# OVCAR-3 = tested on: OVCAR-3
# HOP-92 = tested on: HOP-92
# Hs-578T = tested on: Hs-578T
# SK-OV-3 = tested on: SK-OV-3
# UACC-62 = tested on: UACC-62
# UACC-257 = tested on: UACC-257
# EKVX = tested on: EKVX
# MDA-MB-231 = tested on: MDA-MB-231
# OVCAR-4 = tested on: OVCAR-4
# MOLT-4 = tested on: MOLT-4
# SR = tested on: SR
# SNB-19 = tested on: SNB-19
# COLO 205 = tested on: COLO 205
# RXF 393 = tested on: RXF 393
# A549 = tested on: A549
# SN12C = tested on: SN12C
# SF-539 = tested on: SF-539
# CCRF-CEM = tested on: CCRF-CEM
# SK-MEL-5 = tested on: SK-MEL-5
# HT-29 = tested on: HT-29
# U-251 = tested on: U-251
# SF-268 = tested on: SF-268
# IGROV-1 = tested on: IGROV-1
# HCT-116 = tested on: HCT-116
# TK-10 = tested on: TK-10
# 786-0 = tested on: 786-0
# SF-295 = tested on: SF-295
# UO-31 = tested on: UO-31
# MCF7 = tested on: MCF7
# OVCAR-8 = tested on: OVCAR-8
# KM12 = tested on: KM12
# SW-620 = tested on: SW-620
# K562 = tested on: K562
structure (smiles),measurement,setting,value
N#Cc1nnc2c3c(-c4ccc(Cl)cc4)c(C#N)c(O)nc3nn2c1N,GI50,MDA-MB-435,8.69 µM (inactive)
same,GI50,SK-MEL-2,9.84 µM (inactive)
same,GI50,HCT-15,8.83 µM
same,GI50,LOX IMVI,2.85 µM (inactive)
same,GI50,OVCAR-5,24.8 µM (inactive)
same,GI50,RPMI-8226,8.05 µM (inactive)
same,GI50,MDA-N,3.61 µM (inactive)
same,GI50,HOP-62,4.79 µM (inactive)
same,GI50,DU-145,3.88 µM (inactive)
same,GI50,ACHN,8.11 µM (inactive)
same,GI50,CAKI-1,5.6 µM (inactive)
same,GI50,SK-MEL-28,11.9 µM (inactive)
same,GI50,A498,2.77 µM (inactive)
same,GI50,NCI-H23,5.81 µM (inactive)
same,GI50,T47D,1.17 µM (inactive)
same,GI50,Malme-3M,14.4 µM (inactive)
same,GI50,PC-3,1.45 µM (inactive)
same,GI50,NCI-H460,9.14 µM (inactive)
same,GI50,HCC 2998,3.14 µM (inactive)
same,GI50,NCI-H522,1.62 µM (inactive)
same,GI50,NCI-H226,9.55 µM (inactive)
same,GI50,NCI/ADR-RES,18.4 µM (inactive)
same,GI50,M14,6.89 µM (inactive)
same,GI50,OVCAR-3,3.27 µM (inactive)
same,GI50,HOP-92,5.2 µM (inactive)
same,GI50,Hs-578T,3.4 µM (inactive)
same,GI50,SK-OV-3,4.61 µM (inactive)
same,GI50,UACC-62,1.85 µM (inactive)
same,GI50,UACC-257,15.4 µM (inactive)
same,GI50,EKVX,12.9 µM (inactive)
same,GI50,MDA-MB-231,13.4 µM (inactive)
same,GI50,OVCAR-4,14.9 µM (inactive)
same,GI50,MOLT-4,2.62 µM (inactive)
same,GI50,SR,2.14 µM (inactive)
same,GI50,SNB-19,3.25 µM (inactive)
same,GI50,COLO 205,11.7 µM (inactive)
same,GI50,RXF 393,3.98 µM (inactive)
same,GI50,A549,21.1 µM (inactive)
same,GI50,SN12C,2.38 µM (inactive)
same,GI50,SF-539,2.88 µM (inactive)
same,GI50,CCRF-CEM,3.63 µM (inactive)
same,GI50,SK-MEL-5,6.71 µM (inactive)
same,GI50,HT-29,5 µM (inactive)
same,GI50,U-251,1.28 µM (inactive)
same,GI50,SF-268,3.26 µM (inactive)
same,GI50,IGROV-1,2.61 µM (inactive)
same,GI50,HCT-116,3.51 µM (inactive)
same,GI50,TK-10,22.6 µM (inactive)
same,GI50,786-0,5.14 µM (inactive)
same,GI50,SF-295,5.3 µM (inactive)
same,GI50,UO-31,6.25 µM (inactive)
same,GI50,MCF7,2.06 µM (inactive)
same,GI50,OVCAR-8,4.92 µM (inactive)
same,GI50,KM12,11.9 µM (inactive)
same,GI50,SW-620,5.46 µM (inactive)
same,GI50,K562,7.33 µM (inactive)

# From ChEMBL document CHEMBL1201862, “PubChem BioAssay data set” (2004)
